Reference: US20230172232A1, “COMPOSITIONS AND METHODS USING AN AMINO ACID BLEND FOR PROVIDING A HEALTH BENEFIT IN AN ANIMAL” (Société des Produits Nestlé S.A., priority 2021, published 2023)

Key:
HK2 cells = experiment: Luminescent Cell Viability assay by measuring ATP (CellTiter-Glo 2.0); assay type: cell-based; conditions: for Cell Survival (Average Lum): Table 5, additional study, 48 h in medium, Control 763 951, W/O AA 565 539
Method: An amino acid blend study was performed using HK2 cell response to evaluate kidney health benefit. The amino acid blend composed glycine, methionine, cysteine, and glutamine. Protocol for Luminescent Cell Viability assay by measuring ATP, a key indicator of cell health is detailed hereafter.
For each experiment, a frozen stock of HK2 cells banked with less than passage 4 was thawed and expanded in normal growing medium in a humidified incubator at 37° C. in 5% CO2. HK2 cells were cultured for a maximum of 3 passages prior to cellular assays and were passaged upon reaching 70-80% confluence, approximately every 3 days.
2500 HK2 cells were seeded in 384 well plate in normal growing medium. 24 h after, cells were starved during 2 hours in HBSS buffer to remove all amino acids traces and then a new medium with specific formulation is added for 48 h incubation: Control medium with all amino acids, Medium without amino acids, Medium with 4 amino acids blend, Medium with all amino acids except 4 amino acids of interest, Medium with glycine only, Medium with methionine only, Medium with cysteine only, Medium with glutamine only, and Medium with cysteine+glutamine only.
Treatment is stopped by adding a CellTiter-Glo® 2.0 assay reagent from Promega to lyse the cells, after 20 min of incubation at room temperature with under slight shaking luminescence level was measured using a luminescent plate reader as an indicator of cell viability. Presence of ATP indicates the presence of metabolically active cells.

[1] = system: Complex I (CI) respiration of isolated mitochondria from skeletal muscle; experiment: Acute oxidative stress (menadione) and mitochondrial high-resolution respirometry; assay type: in vivo; conditions: adult zebrafish, 3 μM menadione 2 h, then glycine 50, 200, 450 μM or glucose 500 μM and 5 mM in water 2 h at 28° C.; FIG. 3
Method: Adult AB zebrafish of 4-6 months old were exposed in water to acute oxidative stress with 3 μM Menadione (Sigma-Aldrich) incubation for 2 h at 28° C. Following the stress, fish were divided into controls and treatment groups. Controls of the oxidative stress were then incubated in clean water for 2 h at 28° C. […] After BCA quantification of protein concentration, 150 μg of crude extract were used for high-resolution respirometry quantification. The Oxygraph-2k (O2k, OROBOROS Instruments) was used for measurements of respiration. Up to three O2k instruments ([…]) were used in parallel. […] Respiration of isolated mitochondria was determined using substrate-uncoupler-inhibitor titration (SUIT) protocols (Pesta and […], Methods Mol Biol. 2012; 810:25-58) with modifications. Pyruvate, glutammate and malate (5 mM, 10 mM, 2 mM, respectively) were used as substrate to induce Complex I (CI) respiration in presence of ADP (1 mM). […] CI respiration was calculated as the difference between total respiration (CI+CII) and the addition of CI inhibitor rotenone (0.5 μM); CII respiration was calculated as the difference between inhibited CI respiration and the addition of CII inhibitor malonic acid (5 mM). Total respiration (CI+CII, Tot resp) was assessed as the difference of the respiration in presence of all substrates and the total inhibition of CI and CII.

| SMILES | Cell Survival (Average Lum) (HK2 cells) | Complex I dependent respiration (O2 consumption of isolated mitochondria) [1] | protective effect on cell survival (in words) (HK2 cells; Table 5 study) |
| --- | --- | --- | --- |
| CSCC[C@H](N)C(=O)O [methionine] | 611 869 Lum | – | – |
| NCC(=O)O [glycine] | 620 224 Lum | restores Complex I respiratory levels | – |
| NC(=O)CC[C@H](N)C(=O)O [glutamine] | 740 156 Lum | – | performed similarly to the blend |
| N[C@@H](CS)C(=O)O [cysteine] | 388 041 Lum | – | – |
| CC1=CC(=O)c2ccccc2C1=O [menadione, Menadione, reference compound] | – | decreasing Complex I dependent respiration | – |
